# Assay results as given in ChEMBL document CHEMBL4616703, “Benzoxazepine-Derived Selective, Orally Bioavailable Inhibitor of Human Acidic Mammalian Chitinase” (ACS Med Chem Lett, 2020).
# pIC50: −log10 of the molar value.
# Target: Acidic mammalian chitinase (Homo sapiens, UniProt Q9BZP6)
# Experiment: Inhibition of full length recombinant C-terminal His-tagged human acidic mammalian chitinase expressed in CHOK1 cells assessed as reduction in chitinolytic activity using 4-methylumbelliferyl-beta-D-N,N-diacetylchitobioside hydrate as substrate incubated for 60 mins under shaking condition by microplate fluorometry analysis
# Parameters: species or system CHO-K1
# Conditions: not given
# Acidic mammalian chitinase, sequence (Q9BZP6 whole entry): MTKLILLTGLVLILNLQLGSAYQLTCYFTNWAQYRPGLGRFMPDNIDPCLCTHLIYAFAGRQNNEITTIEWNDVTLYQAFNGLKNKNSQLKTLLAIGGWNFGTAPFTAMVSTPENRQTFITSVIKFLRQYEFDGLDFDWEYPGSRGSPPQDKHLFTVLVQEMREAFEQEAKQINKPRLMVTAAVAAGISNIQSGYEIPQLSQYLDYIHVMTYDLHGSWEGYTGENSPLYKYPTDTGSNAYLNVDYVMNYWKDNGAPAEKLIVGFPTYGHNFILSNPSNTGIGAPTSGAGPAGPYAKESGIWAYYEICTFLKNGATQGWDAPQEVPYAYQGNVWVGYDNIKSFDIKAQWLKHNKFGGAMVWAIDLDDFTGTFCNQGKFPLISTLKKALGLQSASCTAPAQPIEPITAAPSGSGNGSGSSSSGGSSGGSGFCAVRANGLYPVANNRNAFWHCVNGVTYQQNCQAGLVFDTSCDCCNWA
row,SMILES,pIC50
1,Nc1nc(N2CCC(N(Cc3ccccc3)[C@H](CO)Cc3ccc(Cl)cc3)CC2)n[nH]1,6.61
2,Nc1nc(N2CCC(N(CCc3ccc(Cl)cc3)Cc3cc(F)ccc3F)CC2)n[nH]1,8.30
3,Nc1nc(N2CCC(N(CCc3ccc(Cl)cc3)Cc3ccc(Cl)cc3)CC2)n[nH]1,8.40
4,N#Cc1ccc2c(c1)CN(C1CCN(c3n[nH]c(N)n3)CC1)[C@@H](Cc1ccc(Cl)cc1)CO2,7.31
5,Nc1nnc(N2CCC(N3Cc4ccncc4OC[C@@H]3Cc3ccc(Cl)cc3)CC2)[nH]1,7.26
6,Nc1nc(N2CCC(N3Cc4cnccc4OC[C@@H]3Cc3ccc(Cl)cc3)CC2)n[nH]1,6.54
7,Nc1nnc(N2CCC(N3Cc4cc(F)ccc4OC[C@@H]3Cc3ccc(Cl)cc3)CC2)[nH]1,8.15
8,Nc1nc(N2CCC(N3Cc4cccnc4OC[C@@H]3Cc3ccc(Cl)cc3)CC2)n[nH]1,7.52
9,Nc1nc(N2CCC(N(CCc3ccc(Cl)cc3)Cc3cccc(Cl)c3)CC2)n[nH]1,8.22

# Target: Chitotriosidase-1 (Homo sapiens, UniProt Q13231)
# Sequence (Q13231 whole entry): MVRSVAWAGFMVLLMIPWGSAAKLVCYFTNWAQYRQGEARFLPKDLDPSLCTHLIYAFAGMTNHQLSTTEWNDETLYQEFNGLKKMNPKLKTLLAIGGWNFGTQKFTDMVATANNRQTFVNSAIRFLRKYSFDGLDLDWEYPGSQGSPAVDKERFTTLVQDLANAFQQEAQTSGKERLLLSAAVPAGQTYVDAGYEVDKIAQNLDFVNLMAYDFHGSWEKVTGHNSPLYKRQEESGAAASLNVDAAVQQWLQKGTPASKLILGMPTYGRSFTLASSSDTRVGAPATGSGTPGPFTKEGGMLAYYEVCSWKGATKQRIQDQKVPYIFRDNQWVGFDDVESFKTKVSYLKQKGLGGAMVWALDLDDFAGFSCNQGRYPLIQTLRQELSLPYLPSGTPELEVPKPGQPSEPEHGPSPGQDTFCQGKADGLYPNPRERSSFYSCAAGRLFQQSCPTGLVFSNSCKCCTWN
# Experiment: Inhibition of full length recombinant C-terminal His-taged human CHIT1 expressed in CHOK1 cells assessed as reduction in chitinolytic activity using 4-methylumbelliferyl-beta-D-N,N',N''-[…] as substrate incubated for 60 mins under shaking condition by microplate fluorometry analysis
# Parameters: species or system CHO-K1
# Conditions: not given
row,SMILES,pIC50
1,CC(C)CN(CCc1ccc(Cl)cc1)C1CCN(c2nc(N)n[nH]2)CC1,6.64
2,Nc1n[nH]c(N2CCC(N(CCc3ccc(Cl)cc3)Cc3ccccc3)CC2)n1,6.91
3,Nc1n[nH]c(N2CCC(N(CCc3ccc(Cl)cc3)Cc3ccccc3Cl)CC2)n1,6.98
4,Nc1nc(N2CCC(N(Cc3ccccc3)[C@H](CO)Cc3ccc(Cl)cc3)CC2)n[nH]1,4.74
5,Nc1nc(N2CCC(N(CCc3ccc(Cl)cc3)Cc3cc(F)ccc3F)CC2)n[nH]1,6.56
6,Nc1nc(N2CCC(N(CCc3ccc(Cl)cc3)Cc3ccc(Cl)cc3)CC2)n[nH]1,7.05
7,N#Cc1ccc2c(c1)CN(C1CCN(c3n[nH]c(N)n3)CC1)[C@@H](Cc1ccc(Cl)cc1)CO2,5.14
8,Nc1nnc(N2CCC(N3Cc4ccncc4OC[C@@H]3Cc3ccc(Cl)cc3)CC2)[nH]1,5.36
9,Nc1nc(N2CCC(N3Cc4cnccc4OC[C@@H]3Cc3ccc(Cl)cc3)CC2)n[nH]1,4.74
10,Nc1nnc(N2CCC(N3Cc4cc(F)ccc4OC[C@@H]3Cc3ccc(Cl)cc3)CC2)[nH]1,6.03
11,Nc1nc(N2CCC(N3Cc4cccnc4OC[C@@H]3Cc3ccc(Cl)cc3)CC2)n[nH]1,5.62
12,Nc1nc(N2CCC(N(CCc3ccc(Cl)cc3)Cc3cccc(Cl)c3)CC2)n[nH]1,6.75

# Target: Voltage-gated inwardly rectifying potassium channel KCNH2 (Homo sapiens, UniProt Q12809)
# Sequence (Q12809 whole entry): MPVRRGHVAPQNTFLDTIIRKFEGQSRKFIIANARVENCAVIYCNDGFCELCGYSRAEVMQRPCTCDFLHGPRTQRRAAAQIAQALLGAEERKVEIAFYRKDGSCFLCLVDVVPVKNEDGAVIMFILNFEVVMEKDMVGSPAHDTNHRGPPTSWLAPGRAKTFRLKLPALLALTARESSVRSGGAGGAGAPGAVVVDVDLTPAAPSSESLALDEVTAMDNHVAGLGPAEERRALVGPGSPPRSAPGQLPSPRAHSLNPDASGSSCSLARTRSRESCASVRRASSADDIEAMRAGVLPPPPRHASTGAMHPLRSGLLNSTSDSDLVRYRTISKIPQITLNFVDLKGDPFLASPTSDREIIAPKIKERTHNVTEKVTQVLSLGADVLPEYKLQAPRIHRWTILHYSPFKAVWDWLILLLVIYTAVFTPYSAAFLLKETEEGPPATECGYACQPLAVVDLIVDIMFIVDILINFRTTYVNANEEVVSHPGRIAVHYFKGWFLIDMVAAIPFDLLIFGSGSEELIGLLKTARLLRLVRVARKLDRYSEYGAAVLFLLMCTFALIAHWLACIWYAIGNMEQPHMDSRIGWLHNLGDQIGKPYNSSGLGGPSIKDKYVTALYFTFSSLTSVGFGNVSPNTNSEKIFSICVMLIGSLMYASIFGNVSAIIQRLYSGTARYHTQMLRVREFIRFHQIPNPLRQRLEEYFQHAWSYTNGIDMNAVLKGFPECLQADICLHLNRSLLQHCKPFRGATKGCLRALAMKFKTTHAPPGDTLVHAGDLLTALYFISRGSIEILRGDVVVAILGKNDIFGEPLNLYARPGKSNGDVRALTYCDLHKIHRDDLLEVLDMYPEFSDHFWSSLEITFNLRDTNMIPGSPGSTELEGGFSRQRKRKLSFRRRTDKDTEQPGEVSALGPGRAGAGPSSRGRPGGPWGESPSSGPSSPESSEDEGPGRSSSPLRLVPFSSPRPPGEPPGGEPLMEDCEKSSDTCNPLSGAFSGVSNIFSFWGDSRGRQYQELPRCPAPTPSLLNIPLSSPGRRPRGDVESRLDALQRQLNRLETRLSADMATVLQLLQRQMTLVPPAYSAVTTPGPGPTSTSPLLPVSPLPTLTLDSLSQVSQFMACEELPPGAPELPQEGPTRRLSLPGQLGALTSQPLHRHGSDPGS
# Experiment: Displacement of Tracer Red from human ERG by fluorescence polarization assay
# Conditions: not given
row,SMILES,pIC50
1,Nc1n[nH]c(N2CCC(N(CCc3ccc(Cl)cc3)Cc3ccccc3Cl)CC2)n1,5.70
2,Nc1nc(N2CCC(N(Cc3ccccc3)[C@H](CO)Cc3ccc(Cl)cc3)CC2)n[nH]1,5.54
3,Nc1nc(N2CCC(N(CCc3ccc(Cl)cc3)Cc3ccc(Cl)cc3)CC2)n[nH]1,6.40
4,N#Cc1ccc2c(c1)CN(C1CCN(c3n[nH]c(N)n3)CC1)[C@@H](Cc1ccc(Cl)cc1)CO2,4.64
5,Nc1nnc(N2CCC(N3Cc4ccncc4OC[C@@H]3Cc3ccc(Cl)cc3)CC2)[nH]1,4.30
6,Nc1nc(N2CCC(N3Cc4cnccc4OC[C@@H]3Cc3ccc(Cl)cc3)CC2)n[nH]1,4.77
7,Nc1nc(N2CCC(N3Cc4cccnc4OC[C@@H]3Cc3ccc(Cl)cc3)CC2)n[nH]1,< 4.30
8,Nc1nc(N2CCC(N(CCc3ccc(Cl)cc3)Cc3cccc(Cl)c3)CC2)n[nH]1,5.43

# Tested on: not listed separately
# Experiment: AUC (0 to infinity) in Sprague-Dawley rat at 10 mg/kg, po administered as single dose measured after 24 hrs by LC-MS/MS analysis
# Type: ADME, organism-based
# Parameters: dose 10 mg/kg, time infinity, route oral
# Conditions: in vivo
row,SMILES,AUC(0-inf)
1,CC(C)CN(CCc1ccc(Cl)cc1)C1CCN(c2nc(N)n[nH]2)CC1,90 ng·h/mL
2,Nc1n[nH]c(N2CCC(N(CCc3ccc(Cl)cc3)Cc3ccccc3Cl)CC2)n1,1400 ng·h/mL
3,Nc1nc(N2CCC(N(CCc3ccc(Cl)cc3)Cc3cc(F)ccc3F)CC2)n[nH]1,2400 ng·h/mL
4,Nc1nc(N2CCC(N(CCc3ccc(Cl)cc3)Cc3ccc(Cl)cc3)CC2)n[nH]1,7000 ng·h/mL
5,Nc1nc(N2CCC(N(CCc3ccc(Cl)cc3)Cc3cccc(Cl)c3)CC2)n[nH]1,7800 ng·h/mL

# Tested on: not listed separately
# Experiment: Cmax in Sprague-Dawley rat at 10 mg/kg, po administered as single dose measured after 24 hrs by LC-MS/MS analysis
# Type: ADME, organism-based
# Parameters: dose 10 mg/kg, route oral
# Conditions: in vivo
row,SMILES,Cmax
1,Nc1nc(N2CCC(N(CCc3ccc(Cl)cc3)Cc3cc(F)ccc3F)CC2)n[nH]1,600 ng/mL
2,Nc1nc(N2CCC(N(CCc3ccc(Cl)cc3)Cc3cccc(Cl)c3)CC2)n[nH]1,780 ng/mL
